Test system: HCC1937 cells
Assay: Cell viability assay (MTS), HCC1937 cell line
Type: cell-based
Settings: Homo sapiens, HCC1937 cell line (footnote a), 48 hours
Description: HCC1937 cells are plated in a 96 well plate format at a density of 10,000 cells per well. After incubation overnight, cells are treated with a compound (e.g., compound 5) at the following concentrations: 80, 40, 20, 10, 5, 2.5, 1.25 μM. Compound concentrations are prepared in RPMI via serial dilutions from a starting stock of 80 mM. Forty-eight (48) hours after compound treatment, cell viability is assessed using the Promega CellTiter 96 aqueous one proliferation assay (Promega G3582, MTS assay) according to manufacturer's protocol.
The cell viability data was analyzed with GraphPad Prism software. The values were log transformed and analyzed with non-linear regression (curve-fit) using log (inhibitor) vs. response—variable slope (four parameters) and constraining the bottom to equal zero. Unless otherwise indicated, the GI50 values provided in Table 1 correspond to the LNCaP cell viability assays.

GI50: 74.3 µM
Compound: CC(C)Oc1ccc(S(=O)(=O)N[C@@H](c2ccccc2)C2CCNCC2)cn1 [Example 18, (R)-6-isopropoxy-N-(phenyl(piperidin-4-yl)methyl)pyridine-3-sulfonamide]
